Measured values published in US6180650A, “Heterosubstituted pyridine derivatives as PDE 4 inhibitors” (Merck Frosst Canada & Co., priority 2000, dated 2001).

Target: T1, GST-Met 248 PDE 4a (Homo sapiens, UniProt P27815)
T1 construct: phosphodiesterase IVa (met-248); made in house; host or cells: baculovirus/Sf-9
Experiment: SPA based PDE activity assay (IC50, purified GST fusion protein of human recombinant phosphodiesterase IVa (met-248), baculovirus/Sf-9)
Format: biochemical
Details: 100 nM cAMP, 30° C., pH 7.5, 10 min; approximated by non-linear regression of a ten point titration
Method: SPA BASED PDE ACTIVITY ASSAY PROTOCOL Compounds which inhibit the hydrolysis of cAMP to AMP by the type-IV cAMP-specific phosphodiesterases were screened in 96-well plate format as follows: In a 96 well-plate at 30° C. was added the test compound (dissolved in 2 μl DMSO), […] of substrate buffer containing [2,8-^3 H] adenosine 3',5'-cyclic phosphate (cAMP, 100 nM to 50 μM), 10 mM MgCl2, 1 mM EDTA, 50 mM Tris, pH 7.5. The reaction was initiated by the addition of […] of human recombinant PDE-IV (the amount was controlled so that ~10% product was formed in 10 min.). The reaction was stopped after 10 min. by the addition of 1 mg of PDE-SPA beads (Amersham). The product AMP generated was quantified on a Microbeta 96-well plate counter. The signal in the absence of enzyme was defined as the background. 100% activity was defined as the signal detected in the presence of enzyme and DMSO with the background subtracted. Percentage of inhibition was calculated accordingly. IC50 value was approximated with a non-linear regression fit using the standard 4-parameter/multiple binding sites equation from a ten point titration. IC50 values shown in Table 7 were determined with 100 nM cAMP using the purified GST fusion protein of the human recombinant phosphodiesterase IVa (met-248) produced from a baculovirus/Sf-9 expression system.

T1 sequence (P27815 248-886 limits assumed): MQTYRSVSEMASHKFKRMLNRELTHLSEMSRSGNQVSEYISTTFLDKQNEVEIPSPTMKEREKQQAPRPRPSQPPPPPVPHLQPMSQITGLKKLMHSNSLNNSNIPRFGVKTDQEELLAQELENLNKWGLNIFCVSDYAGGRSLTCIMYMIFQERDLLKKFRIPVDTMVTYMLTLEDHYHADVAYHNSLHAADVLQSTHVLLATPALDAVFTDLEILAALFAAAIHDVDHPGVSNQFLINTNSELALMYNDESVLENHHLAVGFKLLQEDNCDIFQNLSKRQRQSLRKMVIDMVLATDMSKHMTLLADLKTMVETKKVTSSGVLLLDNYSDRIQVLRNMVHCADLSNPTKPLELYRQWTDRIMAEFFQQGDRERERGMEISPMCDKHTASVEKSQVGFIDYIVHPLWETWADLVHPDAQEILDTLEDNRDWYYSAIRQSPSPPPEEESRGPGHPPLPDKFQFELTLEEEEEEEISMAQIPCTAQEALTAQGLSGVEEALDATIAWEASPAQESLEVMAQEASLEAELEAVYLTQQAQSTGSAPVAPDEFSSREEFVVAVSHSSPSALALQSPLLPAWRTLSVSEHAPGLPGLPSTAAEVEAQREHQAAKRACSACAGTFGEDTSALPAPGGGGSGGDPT

[O-][n+]1ccc(CC(c2ccc(Oc3ccc(OC(F)(F)F)cc3)nc2)c2ccc(OC(F)F)c(OC(F)F)c2)cc1 (racemic) [Example 1, 4-{2-[3,4-Bis(difluoromethoxy)phenyl]-2-{6-[4-(trifluoromethoxy)phenoxy]3-pyridyl}ethyl}pyridine-N-oxide]
IC50: 2.85 nM

[O-][n+]1ccc(CC(c2ccc(OCc3ccc(F)c(F)c3)nc2)c2ccc(OC(F)F)c(OC(F)F)c2)cc1 (racemic) [Example 16, 4-{2-[3,4-Bis(difluoromethoxy)phenyl]-2-[6-(3,4-difluorobenzyloxy)3-pyridyl]ethyl}pyridine-N-oxide]
IC50: 1.43 nM

CC(C)(COc1ccc(C(Cc2cc[n+]([O-])cc2)c2ccc(OC(F)F)c(OC(F)F)c2)cn1)c1ccc(F)cc1 (racemic) [Example 23, 4-{2-[3,4-Bis(difluoromethoxy)phenyl]-2-{6-[2-methyl-2-(4-fluorophenyl)propyloxy]3-pyridyl}ethyl}pyridine-N-oxide]
IC50: 3.2 nM

CC(C)(Cc1ccccc1)Oc1ccc(C(Cc2cc[n+]([O-])cc2)c2ccc(OC(F)F)c(OC(F)F)c2)cn1 (racemic) [Example 28, 4-{2-[3,4-Bis(difluoromethoxy)phenyl]-2-[6-(1,1-dimethyl-2-phenylethoxy)3-pyridyl]ethyl}pyridine-N-oxide]
IC50: 0.2 nM
